From US10105426B2, “Immunostimulatory combinations” (TRUSTEES OF DARTMOUTH COLLEGE, priority 2002, dated 2018)

Experiments:
Format in all cases: in vivo, C57BL6 mice
[1] = test system: CD8^+ memory T cells; test: Generation and re-activation of CD8+ memory T cells (Example 4); settings: day 0: 100 μg ovalbumin peptide + 200 μg IRM1 + 100 μg 1C10 i.v.; challenge day 28 with peptide or peptide + 200 μg IRM1; analysis day 33
Procedure: Mice were immunized intravenously on day 0 with 100 μg ovalbumin peptide+200 μg IRM 1+100 μg of 1C10 anti-CD40 antibody. On day 28, the mice were either (A) left unchallenged, (B) challenged intravenously with 100 μg ovalbumin peptide, or (C) challenged intravenously with 100 μg ovalbumin peptide+200 μg IRM1. On day 33, the mice were sacrificed, the spleens removed and spleen cells homogenized. The homogenized cells were stained and analyzed as described in Example 1.

[2] = test system: melanoma B16ova tumor cells; test: Tumor growth after melanoma B16ova challenge, immunization with ovalbumin peptide (Example 6); settings: B16ova intradermal day 0; immunization day 7 with 100 μg ovalbumin peptide + 200 μg IRM + 100 μg 1C10; measured day 21
Procedure: Mice were challenged intradermally on day 0 with 1×10^5 melanoma B16ova tumor cells in PBS (Kedl et al. PNAS 98(19):10811-10816). On day 7, the mice were immunized with either (A) 100 μg ovalbumin peptide, (B) 100 μg ovalbumin peptide+200 μg IRM1, or (C) 100 μg ovalbumin peptide+200 μg IRM1+100 μg 1C10 anti-CD40 antibody. On day 21, the mice were sacrificed and the tumors were measured in two dimensions by caliper.
Mice also were challenged as described above, and immunized as described above except that IRM2 was substituted for IRM1.

[3] = test system: CD8^+ T cells; test: CD8+ T cell expansion with IRM1 and different TNF/R agonists (Example 9); settings: 1 mg ovalbumin + 200 μg IRM1 + 200 μg TNF/R agonist; spleen, day 6
Procedure: Mice were immunized on day 0 with 1 mg ovalbumin, 200 μg IRM1, and either 200 μg CD40 ligand (FGK4.5), 200 μg 4-1BB ligand (anti-mouse 4-1BB antibody, clone 17B3, eBioscience, San Diego, Calif.), or no TNF/R agonist (control).

[4] = test system: melanoma B16ova tumor cells; test: Tumor growth after melanoma B16ova challenge, immunization with tumor lysate (Example 7); settings: B16ova day 0; immunization day 7 with 1×10^6 CE tumor lysate ± 200 μg IRM1 ± 100 μg FGK4.5; measured days 14 and 20
Procedure: Mice were challenged with tumor on day 0 as in example 6. 5 mice each were immunized on days 7 with 1×10^6 cell equivalents (CE) (A) tumor lysate, (B) 1×10^6 CE tumor lysate+200 μg IRM1, (C) 1×10^6 CE tumor lysate+100 μg FGK4.5 anti-CD40 antibody, or (D)1×10^6 CE tumor lysate+200 μg IRM1+100 μg FGK4.5 anti-CD40 antibody. Tumor sizes were measured on the mice by caliper on days 14 and 20.

[5] = test system: ovalbumin-specific CD8^+ T cells; test: Expansion of ovalbumin-specific CD8+ T cells after i.v. immunization with ovalbumin peptide (Example 1, MHC tetramer flow cytometry of spleen cells); settings: 100 μg ovalbumin peptide + 100 μg 1C10 anti-CD40 antibody + 200 μg IRM1 i.v., day 5, combination vs either agonist alone
Procedure: Unless otherwise indicated, mice used in the following examples are C57BL6 mice, available from Charles River Laboratories, Inc., Wilmington, Mass.
MHC tetrameric reagent was prepared using a eukaryotic (Baculovirus) expression system as follows/described in Kedl et al., JEM 192(8):1105-1113 (2000).
2-5 Mice were immunized intravenously with (A) 100 μg ovalbumin peptide, (B) 100 μg ovalbumin peptide+100 μg anti-CD40 antibody (1C10), (C) 100 μg ovalbumin peptide+200 μg IRM1, or (D) 100 μg ovalbumin peptide+100 μg 1C10 anti-CD40 antibody+200 μg IRM1. At five days after the immunizations, the spleens were removed from the mice and homogenized. The homogenized cell suspension was stained with a major histocompatibility complex (MHC) tetrameric reagent for detecting ovalbumin-specific T cells (Kedl et al., JEM 192(8):1105-1113 (2000)), a CD8 stain (BD Biosciences Pharmingen, San Diego, Calif.), and a CD44 stain (BD Biosciences Pharmingen, San Diego, Calif.). When subjected to flow cytometry, ovalbumin-specific CD8^+ T cells are shown in the upper right quadrant of the dot plots shown in FIG. 1.

[6] = test system: ovalbumin-specific CD8^+ T cells; test: Expansion kinetics of ovalbumin-specific CD8+ T cells after i.p. immunization with whole ovalbumin (Example 2); settings: 5 mg ovalbumin + 50 μg FGK4.5 anti-CD40 antibody + 220 μg IRM1 i.p.; spleen, days 4-12
Procedure: Mice were intraperitoneally injected with 5 mg ovalbumin (Sigma Chemical Co., St. Louis, Mo.), 50 μg FGK4.5 anti-CD40 antibody, and 220 μg IRM1. Mice were sacrificed on each of days four, five, six, nine, and twelve. The spleens were removed from the sacrificed mice and homogenized. The homogenized cell suspensions were stained and analyzed as described in Example 1. When subjected to flow cytometry, ovalbumin-specific CD8^+ T cells (top) and ovalbumin-specific CD8^+/CD44+ T cells (bottom) were identified and are shown in the upper right quadrant of each dot plot. The numbers in the upper right quadrant indicate the percentage of cells in that quadrant.

[7] = test system: TRP2-ΔV-specific CD8^+ T cells; test: Expansion of TRP2-ΔV-specific CD8+ T cells after i.v. immunization (Example 3); settings: 100 μg FGK4.5 + 200 μg IRM1 + 100 μg TRP2-ΔV peptide i.v.; spleen, day 5
Procedure: Mice were immunized intravenously with 100 μg FGK4.5 anti-CD40 antibody+200 μg IRM1 and either (A) no peptide, (B) 100 μg ovalbumin peptide, or (C) 100 μg TRP2-ΔV peptide. At five days after the immunizations, the spleens were removed from the mice and homogenized. The homogenized cell suspension was stained as in Example 1, except that the MHC tetramer reagent was prepared for detecting TRP2-ΔV-specific T cells. When subjected to flow cytometry, TRP2-ΔV-specific CD8^+ T cells are shown in the upper right quadrant of the dot plots shown in FIG. 3. The numbers in the upper right quadrant indicate the percentage of cells in that quadrant.

[8] = test system: CD8^+ T cells; test: CD8+ T cell expansion with CD40 agonist and different IRM compounds (Example 8); settings: 500 μg ovalbumin + 50 μg FGK4.5 + IRM (500 μg IRM3, 200 μg IRM4, 800 μg IRM5, 800 μg IRM2) i.p.; spleen, day 6; n=3
Procedure: Mice were intraperitoneally injected on day 0 with 500 μg ovalbumin, 50 μg CD40 agonist (FGK4.5), and either 500 μg IRM3, 200 μg IRM4, 800 μg IRM5, 800 μg IRM2, or no IRM (control).

For `Cc1nc2c(N)nc3ccccc3c2n1CC(C)(C)O` [IRM1, 4-amino-α,α,2-trimethyl-1H-imidazo[4,5-c]quinolin-1-ethanol], the “Generation and re-activation of CD8^+ memory T cells” value [1] was “generates a pool of long-lived CD8^+ memory T cells that can be reactivated by treatment with IRM and the antigen”, the “Tumor growth (tumor size by caliper)” value [2] was “slower tumor growth than immunization with IRM alone” and the “Expansion of CD8^+ T cells” value [3] was “Synergistic expansion of CD8^+ T cells”. The “Tumor growth (tumor size by caliper)” value [4] was “slower tumor growth than immunization with IRM alone or CD40 agonist alone”, the “Expansion of the ovalbumin-specific CD8^+ T cell population” value [5] was “greater than the expansion of the ovalbumin-specific CD8^+ T cell populations after stimulation with either the anti-CD40 antibody or IRM alone” and the “CD8^+ T cell expansion (ovalbumin-specific)” value [6] was “synergistic effect on CD8^+ T cell expansion”. For the same compound, the “Expansion of antigen-specific (TRP2-ΔV) CD8^+ T cells” value [7] was “synergistic expansion of antigen-specific CD8^+ T cells”.

In the case of `COCCc1nc2c(N)nc3ccccc3c2n1CCOCCN(C)C(=O)N1CCOCC1` [IRM2, N-(2-{2-[4-amino-2-(2-methoxyethyl)-1H-imidazo[4,5-c]quinolin-1-yl]ethoxy}ethyl)-N-methylmorpholine-4-carboxamide], the “Expansion of CD8^+ T cells” value [8] is reported as “Synergistic expansion of CD8^+ T cells”.

With `CCOCc1nc2c(N)nc3ccccc3c2n1CC(C)(C)N` [IRM3, 1-(2-amino-2-methylpropyl)-2-(ethoxymethyl)-1H-imidazo[4,5-c]quinolin-4-amine] the “Expansion of CD8^+ T cells” value [8] was “Synergistic expansion of CD8^+ T cells”.

In the case of `CCc1nc2c(N)nc3ccccc3c2n1CCCCNS(C)(=O)=O` [IRM4, N-[4-(4-amino-2-ethyl-1H-imidazo[4,5-c]quinolin-1-yl)butyl]-methanesulfonamide], the “Expansion of CD8^+ T cells” value [8] is reported as “Synergistic expansion of CD8^+ T cells”.

`CCCc1nc2c(N)nc3ccccc3c2n1CCCCNS(C)(=O)=O` [IRM5, N-[4-(4-amino-2-propyl-1H-imidazo[4,5-c]quinolin-1-yl)butyl]-methanesulfonamide] was tested, and the “Expansion of CD8^+ T cells” value [8] was “Synergistic expansion of CD8^+ T cells”.
